In ChEMBL document CHEMBL1142305, “The effect of flavonoid derivatives on doxorubicin transport and metabolism” (Bioorg Med Chem, 2008):
Blank lines part the entries; values can stand above or below the compound they belong to.

Assays:
MDA-MB-435 [1] = assay: Cytotoxicity against human MDA-MB-435 cells at 10 uM after 96 hrs by MTT assay; type: cell-based; details: mda-mb-435, 96 h
Liver [2] = assay: Effect on doxorubicin metabolism in human liver cytosolic fractions assessed as inhibition of formation of doxorubicinol at 30 uM; type: ADME, subcellular; details: cytosol
Liver microsomes = assay: Metabolic stability in human liver microsomal fraction assessed as formation of doxorubicin aglycone after 60 mins; type: ADME, Microsome; details: 1 h
Liver [3] = assay: Metabolic stability in human liver cytosolic fraction assessed as formation of doxorubicinol after 60 mins; type: ADME, subcellular; details: cytosol, 1 h
Liver [4] = assay: Effect on doxorubicin metabolism in human liver cytosolic fractions assessed as inhibition of formation of doxorubicinol; type: ADME, subcellular, Cytosol
[5] = Decrease in [14C]DOX accumulation in human NCI-ADR-RES cells at 30 uM after 120 mins; type: ADME, cell-based; set-up: scale not given: the % may be the effect or the level left; details: 2 h
[6] = Effect on [14C]DOX efflux in human NCI-ADR-RES cells; type: ADME, cell-based
MDA-MB-435 [7] = assay: Effect on drug efflux in human MDA-MB-435 cells at 100 nM upto 120 mins; type: ADME, cell-based; details: mda-mb-435, 2 h, 0.1 µM
[8] = Effect on drug efflux in human NCI-ADR-RES cells at 100 nM upto 120 mins; type: ADME, cell-based; details: 2 h, 0.1 µM
MDA-MB-435 [9] = assay: Drug uptake in human MDA-MB-435 cells in presence of 100 uM MK-571; type: ADME, cell-based
[10] = Inhibition of drug efflux in human NCI-ADR-RES cells at 100 nM after 120 mins in presence of 100 uM verapamil; type: ADME, cell-based; details: 2 h, 0.1 µM
[11] = Increase in drug uptake in human NCI-ADR-RES cells in presence of 100 uM verapamil; type: ADME, cell-based
MDA-MB-435 [12] = assay: Increase in drug uptake in human MDA-MB-435 cells in presence of 100 uM verapamil; type: ADME, cell-based
[13] = Effect on drug uptake in human NCI-ADR-RES cells in presence of 10 uM verapamil; type: ADME, cell-based
MDA-MB-435 [14] = assay: Effect on drug uptake in human MDA-MB-435 cells in presence of 10 uM verapamil; type: ADME, cell-based

SMILES: O=c1c(O)c(-c2ccc(O)c(O)c2)oc2cc(O)ccc12 [FISETIN]
- Activity (MDA-MB-435 [1]): Toxic

SMILES: O=C1C[C@@H](c2ccc(O)c(O)c2)Oc2cc(O)cc(O)c21 [ERIODICTYOL]
- Activity (MDA-MB-435 [1]): Toxic

- Activity (Liver [2]): Active
SMILES: O=C(/C=C/c1ccc(I)cc1)c1c(O)cc(O)cc1O
- Activity (MDA-MB-435 [1]): Toxic

SMILES: CCc1ccc(/C=C2\Oc3cc(OC)cc(O)c3C2=O)cc1
- Activity (MDA-MB-435 [1]): Toxic

- Activity (Liver [2]): Active
SMILES: COc1cc(O)c2c(c1)O/C(=C\c1ccccc1)C2=O
- Activity (MDA-MB-435 [1]): Toxic

- Activity (Liver microsomes): 4.63%
- Activity (Liver [3]): 15.1%
SMILES: COc1cccc2c1C(=O)c1c(O)c3c(c(O)c1C2=O)C[C@@](O)(C(=O)CO)C[C@@H]3O[C@H]1C[C@H](N)[C@H](O)[C@H](C)O1 [DOXORUBICIN]

SMILES: O=c1c(O)c(-c2ccc(O)c(O)c2)oc2cc(O)cc(O)c12 [QUERCETIN]
- IC50 (Liver [4]): 16.2 µM
- Activity (MDA-MB-435 [1]): Toxic
- Activity [5]: 51.3%
- Activity [6]: Not Active

SMILES: COc1cc(O)c2c(c1)O/C(=C\c1ccc(Cl)cc1)C2=O
- Activity (MDA-MB-435 [1]): Toxic

SMILES: COc1cc(OC)c2c(c1)O/C(=C\c1cc(OC)c(OC)cc1OC)C2=O
- Activity (MDA-MB-435 [1]): Toxic

- Activity (MDA-MB-435 [7]): 23%
- Activity [8]: 66%
- Activity (MDA-MB-435 [9]): Not Active
- Activity [10]: Active
- Fold change [11]: 7.6
- Fold change (MDA-MB-435 [12]): 3.7
- Activity [13]: Not Active
- Activity (MDA-MB-435 [14]): Not Active
SMILES: C[C@@H]1O[C@@H](O[C@H]2C[C@](O)(C(=O)CO)Cc3c(O)c4c(c(O)c32)C(=O)c2c(O[14CH3])cccc2C4=O)C[C@H](N)[C@@H]1O
